Test results from patent publication US9963518B2, “Cyclic oligosaccharides for use in the treatment and prevention of bacterial infection” (priority 2011, dated 2018).
Like-named read-outs stand apart in the source and are kept apart here.

What was measured:
E. coli strain E69 = assay: LPS exposure assay, O9a LPS to O9a LPS-specific antibodies (FACS); assay type: cell-based; details: 1 mM, antiserum incubation 1 h; for LPS exposure by median fluorescence intensity: relative to CWG281 positive control
Description: The direct effect of the inhibition of K30 CPS transport on E. coli strain E69 is the appearance of defects in the capsule layer. This should in turn lead to exposure of O9a LPS at the cell surface. To test this hypothesis, the attachment of rabbit anti-O9a antibodies was quantified by flow cytometry (FACS), by using secondary fluorescent anti-rabbit antibodies. The design of the experiment is depicted schematically in FIG. 4a.
E. coli strains E69 and CWG281 were grown as described above in Example 4 and the OD600 was adjusted to 0.4. The concentrations of cyclodextrin (either am8γCD (compound 13), am6αCD (compound 3) or am7βCD (compound 10)) present in the growth media were 10 nM, 100 nM, 1 μM, 10 μM, 50 μM, 100 μM and 1 mM. 50 μL samples of each were centrifuged at 3,000×g for 10 min to remove the medium, washed with PBS and resuspended in 50 μL PBS. O9a antiserum (0.5 μL) was then added. The mixtures were incubated on ice for 1 h (to compare the effects of am6αCD, am7βCD and am8γCD on the exposure of LPS) or 2 h (for the estimation of minimum effective concentration of am8γCD required to expose LPS to antibodies), followed by centrifugation at 3,000×g for 10 min and washing with PBS. The pellets were resuspended in PBS (50 μL), to which Alexa Fluor 488 Goat Anti-Rabbit IgG secondary antibody (1 μL, Life Technologies, A11034, λex 495 nm, λem 519 nm) was added, followed by incubation for 1 h on ice. The cells were then centrifuged at 3,000×g for 10 min. The pellets were resuspended in PBS (1 mL), followed by analysis by flow cytometry (FACS) using a Becton-Dickinson FACSCalibur. 10,000 cells were analysed for each sample. Fluorescence was measured in the FL1 channel (530 nm).

WT Wza = WT Wza (Escherichia coli, UniProt Q9X4B7); assay: Single-channel electrical recording, blockers against wt-Wza in planar lipid bilayers; assay type: binding, E. coli; details: for Interaction with WT Wza: 2M KCl, 5 mM HEPES, 100 μM EDTA, 200 μM DTT, pH 7.5
Description: The Wt Wza transporter was tested in single-channel recording, in accordance with the procedures of Naismith (Nature 2006, 444, 226-229) for its ability to form pores in planar lipid bilayers. Sequential insertions of channels in a single orientation were used to measure the conductance of a single channel because more than one channel could insert simultaneously during the first introduction, especially when protein molecules have not properly diffused yet. Repetition of experiments helped to verify conductance of a single channel. […] After collection of 37 insertions of wt Wza channel, the current of a single channel of wt Wza in 2 M KCl buffer was determined to be 1.89±0.01 pA (n=37) on average, corresponding to 18.9±0.1 pS (n=37) in conductance.
(§1) Thirteen commercial cyclodextrins (CDs) were tested for their ability to block WT-Wza and the mutant Y110G/K375C (Table 1) including, neutral, negatively charged or positively charged cyclodextrins. Testing was carried out using electrical channel recording in high salt buffer (2M KCl, 5 mM HEPES, 100 μM EDTA, 200 μM DTT) at pH 7.5.

Wza Y110G/K375C = Wza Y110G/K375C (Escherichia coli, UniProt Q9X4B7, K375C/Y110G); assay: Single-channel electrical recording, blockers against mutant Wza Y110G/K375C; assay type: binding, E. coli; details: Y110G/K375C; for Kd: n = 3, 2M KCl buffer pH 7.5
Description: The Wza pore was opened by replacing the tyrosines at position 110 that line the narrowest region of the lumen with glycine. To confirm that the currents observed indeed arose from the mutant pore, a cysteine was introduced in the α-helix barrel (Y110G/K375C) and would therefore yield a characteristic reversible blockade when derivatized with a suitable thiol-specific reagent.
The unitary conductance of the Y110G/K375C pore was determined as for wt-Wza, by measuring stepwise-insertion using the same technique referenced above. The mean open current of Y110G/K375C was determined to be +85±14.1 pA (+50 mV, n=31), corresponding to 1.70±0.28 nS (+50 mV, n=31) in conductance.
as §1

SMILES	LPS exposure by percentage of labelled cells (E. coli strain E69) [%]	LPS exposure by median fluorescence intensity (E. coli strain E69) [%]	Interaction with WT Wza (WT Wza)	Interaction with mutant Wza (Wza Y110G/K375C; 2M KCl, 5 mM HEPES, 100 μM EDTA, 200 μM DTT, pH 7.5)	Kd (Wza Y110G/K375C; +3 mV, read-out: Kd, interaction with mutant Wza) [µM]	Kd (Wza Y110G/K375C; Kd, interaction with mutant Wza, +3 mV) [µM]	Kd (Wza Y110G/K375C; Kd, interaction with mutant Wza, +75 mV) [µM]	Kd (WT Wza) [µM]
NCC1OC2OC3C(CN)OC(OC4C(CN)OC(OC5C(CN)OC(OC6C(CN)OC(OC7C(CN)OC(OC1C(O)C2O)C(O)C7O)C(O)C6O)C(O)C5O)C(O)C4O)C(O)C3O (stereo not drawn) [No. 3, hexakis (6-amino-6-deoxy)-α-cyclodextrin]	36	3.2	not observed					
NC[C@H]1O[C@@H]2O[C@H]3[C@H](O)[C@@H](O)[C@@H](O[C@H]4[C@H](O)[C@@H](O)[C@@H](O[C@H]5[C@H](O)[C@@H](O)[C@@H](O[C@H]6[C@H](O)[C@@H](O)[C@@H](O[C@H]7[C@H](O)[C@@H](O)[C@@H](O[C@H]8[C@H](O)[C@@H](O)[C@@H](O[C@H]1[C@H](O)[C@H]2O)O[C@@H]8CN)O[C@@H]7CN)O[C@@H]6CN)O[C@@H]5CN)O[C@@H]4CN)O[C@@H]3CN [No. 4, heptakis (6-amino-6-deoxy)-β-cyclodextrin]	9	1.8	not observed	not observed^b	2900 ± 1800			
NC[C@H]1O[C@@H]2O[C@H]3[C@H](O)[C@@H](O)[C@@H](O[C@H]4[C@H](O)[C@@H](O)[C@@H](O[C@H]5[C@H](O)[C@@H](O)[C@@H](O[C@H]6[C@H](O)[C@@H](O)[C@@H](O[C@H]7[C@H](O)[C@@H](O)[C@@H](O[C@H]8[C@H](O)[C@@H](O)[C@@H](O[C@H]1[C@H](O)[C@H]2O)O[C@@H]8CN)O[C@@H]7CN)O[C@@H]6CN)O[C@@H]5CN)O[C@@H]4CN)O[C@@H]3CN [compound 4]						2900	2100	13000
